Among the data in a melting point compilation (Tetko et al.; mined from patent text by program, amines drawn as free bases though some values may be those of a salt) are melting point values, retold here.

Take `CCOc1cc2c(C)c(CCN3CCN(c4ccccc4)CC3)c(=O)oc2cc1OC`: the melting point lay within 164 to 165 °C.

Regarding `COc1cc(-c2ccc(O)c(C3(C)CCCCC3)c2)cc(CC2SC(N3CCCC3)=NC2=O)c1O` (configuration not stated), the melting point is 204 to 206 °C.

Compound `COc1ccc2c(c1)Sc1cc(OC)ccc1N2` displayed a melting point of 194 to 196 °C.

With `O=C(NNS(=O)(=O)c1ccccc1)c1ccccc1Br`, the melting point fell in the range of 154 to 156 °C.

As to `Cc1ncc([N+](=O)[O-])n1CCOS(C)(=O)=O`, the melting point lay within 152 to 153 °C.

Take `CCOC(=O)c1cccc(C2(C(N)=O)C(=O)N(CC(=O)N(c3ccccc3)C(C)C)c3ccccc3N(c3ccccc3)C2=O)c1` (configuration not stated): the melting point lay within 187 to 188 °C.

On to `Cc1cc(NS(=O)(=O)c2ccc(Cl)cc2)cc(C)c1S(=O)(=O)C[N+](=O)[O-]`, for which the melting point lay within 160 to 162 °C.

Regarding `O=C(C1CC1)N1CCC2C1CCCC2(O)c1ccc(Cl)cc1` (configuration not stated), the melting point is 167 to 169 °C.

`COc1ccccc1N1CCN(CCC(C(N)=O)(c2ccccn2)c2ccccc2[N+](=O)[O-])CC1` (configuration not stated) registered a melting point of 63 to 72 °C.

As for `O=C(O)c1ccc(OCCN2CCOCC2)cc1`, the melting point was 112 to 114 °C.

`CCCCc1c(/C=C/C(=O)Oc2ccc([N+](=O)[O-])cc2)ccc2c(OC)cccc12` yielded a melting point of 115 to 116 °C.

Regarding `CCOC(=O)c1c(S(=O)(=O)Cc2nccn2C)nc2cc(OC)c(OC)cc2c1-c1ccc(OC)c(OC)c1`, the melting point is 132 to 133 °C.

Consider `CCCCN(C)CCc1ccc(Nc2ncc3c(n2)-c2ccccc2C(c2ccccc2C(F)(F)F)C3)cc1` (configuration not stated), for which the melting point is 80 to 82 °C.

With `CC1CN(c2ccc(Cl)cn2)N=C1N` (configuration not stated), the melting point lay in the range of 159 to 160 °C.

`CC1(C)CC(=O)C(C(=O)Nc2cccc(Cl)c2)C(=O)C1` returned a melting point of 89 to 91 °C.

For the compound `CCOC(=O)C1=C(C)NC(c2ncsc2Cl)=NC1c1ccc(F)cc1Cl` (configuration not stated), the melting point lay in the range of 149 to 152 °C.

In the case of `c1ccc(N=C(Nc2ccccc2)c2ccccc2)cc1`, the melting point was 143 to 144 °C.

As to `CC(=O)Oc1c(C)c2c(c3ccccc13)OCC2c1ccc(C(C)C)cc1` (configuration not stated), the melting point fell in the range of 109 to 110 °C.

Regarding `COc1cc2c(Nc3cccc(N(C)C)c3)c(C#N)cnc2c(OC)c1OC`, the melting point fell in the range of 142 to 144 °C.

`CC(C)n1c(=O)on(C(=O)n2oc(=O)n(C(C)C)c2=O)c1=O` returned a melting point of 150 °C.

`CCOC(C)=C(C#N)C(=O)Nc1ccccc1C`: the melting point was 179 to 181 °C.

In the case of `COCc1nc(N)nc(N)c1-c1cccc(Cl)c1Cl`, the melting point lay within 237 to 240 °C.

Consider `O=C1c2c(Cl)cccc2-n2cnc(-c3noc(CCl)n3)c2[C@@H]2CCCN12`, for which the melting point fell in the range of 184 to 186 °C.

`CCCCc1nc2cccc(CO)c2n1Cc1ccc(-c2ccccc2-c2nnn[nH]2)cc1` had a melting point of 152 to 153 °C.

As to `CN1CCN(c2cc3c(F)cccc3c(=O)[nH]2)CC1`, the melting point fell in the range of 238 to 239 °C.

In turn, `CN1C=Cc2ccccc2CC1=O` yielded a melting point of 81 to 82 °C.

Regarding `CCC(COC)c1ccc(Cl)c2nc3n(c12)CCCN3c1ccc(Cl)cc1Cl` (configuration not stated), the melting point was in the range of 130 to 131 °C.

On to `CCOC(=O)CCCCCCCSc1nc(-c2ccccc2)c(-c2ccccc2)[nH]1`, for which the melting point was in the range of 77 to 79 °C.

With `COC(=O)C1=Cc2cc(Br)ccc2CCC1`, the melting point is 83 to 84 °C.

Compound `CCOC(=O)c1ccc(-c2ccc(OCCCCCCCCCCCCBr)cc2)cc1` showed a melting point of 88.6 to 90.5 °C.

For the compound `COc1ccc(-c2nc(C(F)(F)F)cn2-c2ccc(Br)cc2)cc1`, the melting point is 140 to 141 °C.

Regarding `CN(C)c1ccc2nc(-c3c[nH]c4ccccc34)[nH]c(=O)c2c1`, the melting point was more than 300 °C.

On to `CCN(CC)CC(C)COc1ccc2nc(-c3cccc(OC)c3)n(CC(=O)NC(C)C)c(=O)c2c1` (configuration not stated), for which the melting point fell in the range of 161 to 163 °C.

For `c1ccc2c(c1)OCCN1CCOCCN(CCOCC1)CCO2`, the melting point was in the range of 119 to 120 °C.

In the case of `Oc1cc2c(cc1OCCCOc1ccccc1)OCC2`, the melting point lay within 106 to 107 °C.

On to `O=C1C(=O)c2ccccc2C2=C1SCC1(CCN(CCCOc3ccc(F)cc3)CC1)O2`, for which the melting point fell in the range of 164 to 165 °C.

In the case of `CC(C)(C)c1ccc(C(=O)Nc2cn3cc(-c4ncc[nH]4)ccc3n2)cc1`, the melting point fell in the range of 300 to 301 °C.

Compound `Cc1ncc2cc(C#N)c(O)nc2n1` had a melting point of more than 200 °C.

As to `NCc1ccc(N2CCN(c3ccncc3)CC2)cc1`, the melting point was in the range of 168 to 170 °C.

As for `COc1ccccc1NC(=O)NC1CC(N)(C(=O)O)C2C(C(=O)O)C12` (configuration not stated), the melting point is more than 250 °C.

Compound `NC1CN(c2cc3c(cc2F)c(=O)c(C(=O)O)cn3C2CC2)C1` registered a melting point of 246 to 247 °C.

As for `CN1CCC(c2n[nH]c3ccc([N+](=O)[O-])cc23)CC1`, the melting point fell in the range of 237 to 239 °C.

For `CCCCNc1cc(-c2ccccc2)nc2nn(C)cc12`, the melting point fell in the range of 160 to 161 °C.

Compound `CN1Cc2ccccc2C(O)(Cc2ccc(Cl)cc2F)C1` (configuration not stated) came in with a melting point of 113 to 116 °C.

As to `Cc1ccc2nc(S)sc2c1`, the melting point lay within 179 to 181 °C.

As to `COc1ccccc1OC1CCN(CCCNC(=O)c2cccc3c(=O)c(C)c(-c4ccccc4)oc23)CC1`, the melting point lay in the range of 154 to 156 °C.

`O=C(COc1cccc2cccnc12)c1ccc(Cl)cc1` had a melting point of 111 to 112 °C.

`Cc1sc(CO)c(C)c1C` yielded a melting point of 45 to 48 °C.

For `CN1c2cc(Cl)ccc2-c2nc3ccc(Cl)cc3c3cccc1c23`, the melting point lay in the range of 273 to 275 °C.

`C#Cc1cccc(Nc2ncnc3[nH]cc(-c4cccc([N+](=O)[O-])c4)c23)c1` yielded a melting point of 189 to 190 °C.

In turn, `O=C1CC(c2cccc(-n3ccnc3)c2)=Nc2cc(OCCO)c(-c3ccc(F)cc3)cc2N1` gave a melting point of 225 °C.

`O=C(NCc1ccccc1)c1ccnc(NC(=O)c2cccs2)c1` yielded a melting point of 160 to 162 °C.

`Cc1ccccc1C(=O)CN1C(=O)C(NC(=O)Nc2cccc(-c3nnn[nH]3)c2)N=C(c2ccccc2F)c2cccc(C)c21` (configuration not stated) showed a melting point of 216 to 220 °C.

Turning to `COc1ccc(NC=C(C#N)C(=O)Nc2cc(OC)c(Cl)cc2Cl)cc1F`, the melting point was in the range of 275 to 276 °C.

The compound `COc1cccc(C(=O)NCCNC(=O)OC(C)(C)C)n1` showed a melting point of 104 to 105 °C.

`CC(=O)Oc1cc2c(c3ccccc13)N(C(=O)OC(C)OC(C)=O)c1ccccc1S2` (configuration not stated) gave a melting point of 76 to 78 °C.

With `COc1ccc(N2CCOCC2)c2sc(-c3nc4c([nH]3)CCN(C(=O)c3ccccc3C)CC4)nc12`, the melting point lay in the range of 194 to 196 °C.

For the compound `C[C@@H](NCCOCc1ccccc1)[C@](O)(Cn1cncn1)c1ccc(Cl)cc1Cl` (relative stereo), the melting point fell in the range of 105 to 107 °C.

Take `CCc1c(C(=O)c2cc(C)cc(C)c2)n(CCC2=CCCC2)c(=O)[nH]c1=O`: the melting point was 211 to 213 °C.

For the compound `NS(=O)(=O)c1cc(C(=O)O)cc([N+](=O)[O-])c1Nc1ccc(Cl)cc1`, the melting point was 241 to 243 °C.

For `Cc1ccc(S(=O)(=O)N2CCC3(C=Cc4ccccc43)CC2)cc1`, the melting point lay within 168 to 170 °C.

Turning to `CCCc1c(OCc2ccc(C(=O)NCCCCc3cccnc3)cc2)ccc(C(C)=O)c1O`, the melting point is 91 to 95 °C.

`CN1Cc2c(F)ccc3scc(c23)S1(=O)=O` showed a melting point of 175 °C.

In the case of `CS(=O)(=O)Nc1cc2c(cc1Oc1ccccc1)C(=O)C(Sc1ccccc1)(Sc1ccccc1)C2`, the melting point stood at 162 °C.

In the case of `COc1ccc(C(O)(CC#N)c2ccc(OC)cc2)cc1`, the melting point turned out to be 102 °C.

Turning to `CC(C)(C)c1cc(CCc2ccccc2NC(=O)Nc2ccccc2)cc(C(C)(C)C)c1O`, the melting point worked out at 207 °C.

On to `CC(C)Oc1ccc(CCC(=O)NS(=O)(=O)c2ccccc2)c(Oc2ncc(C(F)(F)F)cc2Cl)c1`, for which the melting point lay in the range of 129 to 130 °C.

`O=C(O)C1COC(C(F)(F)F)(C(F)(F)F)O1` (configuration not stated) returned a melting point of 62 to 63 °C.

On to `COC(=O)CCCc1cc2cc(C(F)(F)F)ccc2n1S(=O)(=O)c1ccc2nc(C)oc2c1`, for which the melting point was 78 to 82 °C.

Regarding `O=C(C=Cc1ccc2c(c1)OCO2)c1cccc(OCCCCCBr)c1`, the melting point fell in the range of 87 to 88 °C.

With `CCOC(=O)C1(O)CSC(O)(C(=O)OCC)CS1` (configuration not stated), the melting point lay in the range of 139 to 143 °C.

For the compound `CCC1C(C)=NN=C(c2ccccc2F)c2cc(OC)c(OC)cc21` (configuration not stated), the melting point lay within 86 to 88 °C.

Compound `O=C(c1ccc(OCCN2CCCC2)cc1)c1c(-c2ccc(O)cc2)sc2cc(O)ccc12` came in with a melting point of 146 to 147 °C.

`NS(=O)(=O)c1cccc(-c2noc(-c3cnn4c(C(F)(F)F)cc(-c5ccc(Cl)cc5)nc34)n2)c1` registered a melting point of 247 °C.

`CCCCCCCCCCCCOC(=O)c1cccc(NC(=O)NS(=O)(=O)c2ccc(C)cc2)c1` gave a melting point of 110 to 112 °C.

`CCc1cc2nc(N)c(-c3ccccc3)cc2c(CC)n1` gave a melting point of 110 to 112 °C.

The compound `COc1ccc(C2S(=O)(=O)CCCS2(=O)=O)cc1OC` had a melting point of 243 to 245 °C.

On to `COc1ccc(-c2nc(Sc3cccc(OC)c3)[nH]c2-c2ccc(OC)cc2)cc1`, for which the melting point worked out at 101 °C.

Regarding `OCc1c(-c2ccccc2)nn2c1-c1ccccc1CC2`, the melting point lay in the range of 185 to 187 °C.

`CC1(COc2nc3ccccc3o2)Cn2cc([N+](=O)[O-])nc2O1` (configuration not stated) showed a melting point of 200 to 203 °C.

In the case of `O=C(NCCCCCCCCCCCC(=O)OCC12CC3CC(CC(C3)C1)C2)NC12CC3CC(CC(C3)C1)C2`, the melting point is 68 °C.

In the case of `Cc1cccc(-c2n[nH]cc2-c2ccc(F)c(-c3ccc(S(C)(=O)=O)cc3)c2)n1`, the melting point was 100 to 102 °C.

The compound `CC(C)(C)OC(=O)N(C1CCNCC1)C1CCOCC1` registered a melting point of 104 °C.

In turn, `CC(=O)Nc1cc(C)c(N)cc1C` had a melting point of 133 to 135 °C.

Regarding `CNC(=O)c1ccc(CN2CCN(c3nc(C)c(C(C)=O)s3)C2=O)cc1`, the melting point is 173 to 175 °C.

`Cc1cc(NC(=O)C(C)(C)Sc2ccc(Cl)cc2)c(C)c(C)c1O` yielded a melting point of 134 °C.

`O=C(Nc1ccc(C(F)(F)F)cc1)N[C@@H](Cc1ccccc1)C(=O)OCc1ccccc1`: the melting point was in the range of 155 to 157 °C.
